In PubChem BioAssay AID330 (DTP/NCI, 2004):
“And” between values parts separate entries of the source, which are not always exact repeats. Equal entries are not always repeated. Inconclusive results and toxic doses are left out.

Test system: P388 leukemia ip, CD2F1 mice, survival T/C
Test: NCI In Vivo Anticancer Drug Screen. Data for tumor model P388 Leukemia (intraperitoneal) in CD2F1 (CDF1) mice
Settings: endpoint: median survival time, higher = longer survival
How it was run: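 Mice carrying the transplanted tumor received test compound or vehicle. Survival was recorded in each group, and the value is the treated-group measurement divided by that of the vehicle-treated control group.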

[1] = dose: 25.0 mg/kg/injection, schedule: Q01DX009 (ip), vehicle: saline with Tween-80
[2] = dose: 50.0 mg/kg/injection, schedule: Q01DX009 (ip), vehicle: saline with Tween-80
[3] = dose: 50.0 mg/kg/injection, schedule: Q01DX009 (ip), vehicle: saline
[4] = dose: 60.0 mg/kg/injection, schedule: Q01DX005 (ip), vehicle: saline with Tween-80
[5] = dose: 120.0 mg/kg/injection, schedule: Q01DX005 (ip), vehicle: saline with Tween-80
[6] = dose: 100.0 mg/kg/injection, schedule: Q01DX009 (ip), vehicle: saline
[7] = dose: 50.0 mg/kg/injection, schedule: Q01DX005 (ip), vehicle: saline with Tween-80
[8] = dose: 100.0 mg/kg/injection, schedule: Q01DX005 (ip), vehicle: saline with Tween-80

Question: Which T/C (dose: 6.25 mg/kg/injection, schedule: Q01DX009 (ip), vehicle: saline) does the source give for NC(=S)N/N=C/c1cc(-c2cccc(N)c2)ccn1 here?
Answer: 121 % of control

Question: And the T/C (dose: 9.4 mg/kg/injection, schedule: Q04DX003 (ip), vehicle: saline)?
Answer: 109 % of control

Question: What about the T/C (dose: 18.8 mg/kg/injection, schedule: Q04DX003 (ip), vehicle: saline) of the same compound?
Answer: 122 % of control

Question: What about the T/C [1] of the same compound?
Answer: 119 % of control

Question: What about the T/C (dose: 25.0 mg/kg/injection, schedule: Q01DX009 (ip), vehicle: saline) of the same compound?
Answer: 150 % of control

Question: What about the T/C [2] of the same compound?
Answer: 122 % of control

Question: And the T/C [3]?
Answer: 154 % of control

Question: And the T/C (dose: 75.0 mg/kg/injection, schedule: Q01DX009 (ip), vehicle: saline with Tween-80)?
Answer: 111 % of control and 122 % of control

Question: And the T/C (dose: 75.0 mg/kg/injection, schedule: Q01DX009 (ip), vehicle: saline)?
Answer: 158 % of control

Question: And the T/C (dose: 150.0 mg/kg/injection, schedule: Q04DX003 (ip), vehicle: saline)?
Answer: 123 % of control

Question: Which T/C (dose: 100.0 mg/kg/injection, schedule: Q04DX002 (ip), vehicle: saline with Tween-80) does the source give for CCCCCC(O)/C=C/[C@H]1C(O)CC2OC(CSCCC(=O)O)C[C@@H]21 (stereo partly drawn) here?
Answer: 103 % of control

Question: What about the T/C (dose: 200.0 mg/kg/injection, schedule: Q04DX002 (ip), vehicle: saline with Tween-80) of the same compound?
Answer: 96 % of control

Question: Which T/C (dose: 6.25 mg/kg/injection, schedule: Q04DX002 (ip), vehicle: saline) does the source give for Clc1cc2[nH]cnc2c(Cl)n1 here?
Answer: 102 % of control

Question: What about the T/C (dose: 12.5 mg/kg/injection, schedule: Q04DX002 (ip), vehicle: saline) of the same compound?
Answer: 102 % of control

Question: What about the T/C (dose: 25.0 mg/kg/injection, schedule: Q04DX002 (ip), vehicle: saline) of the same compound?
Answer: 103 % of control

Question: With Cc1ccnc(NS(=O)(=O)c2ccc(N=Nc3nc4[nH]c(N)nc(=S)c4[nH]3)cc2)n1 as the compound, how does the T/C (dose: 0.2 mg/kg/injection, schedule: Q01DX009 (ip), vehicle: saline with Tween-80) read?
Answer: 124 % of control

Question: And the T/C (dose: 6.25 mg/kg/injection, schedule: Q01DX009 (ip), vehicle: saline with Tween-80)?
Answer: 106 % of control

Question: COc1ccc2c(c1OC)C(=O)O/C2=C/c1c(CCN(C)C)cc2c(c1O)OCO2 was tested. Which T/C (dose: 53.0 micrograms/kg/injection, schedule: Q01DX005 (ip), vehicle: Klucel (hydroxypropylcellulose) (HPC)) did it give?
Answer: 104 % of control

Question: What about the T/C (dose: 105.0 micrograms/kg/injection, schedule: Q01DX005 (ip), vehicle: Klucel (hydroxypropylcellulose) (HPC)) of the same compound?
Answer: 91 % of control

Question: And the T/C (dose: 210.0 micrograms/kg/injection, schedule: Q01DX005 (ip), vehicle: Klucel (hydroxypropylcellulose) (HPC))?
Answer: 96 % of control

Question: And the T/C (dose: 420.0 micrograms/kg/injection, schedule: Q01DX005 (ip), vehicle: Klucel (hydroxypropylcellulose) (HPC))?
Answer: 102 % of control

Question: With CC1=NN(C(=O)c2ccccn2)C(c2ccccc2)/C1=N\Nc1ccc(S(N)(=O)=O)cc1 (stereo not drawn) as the compound, how does the T/C (dose: 60.0 mg/kg/injection, schedule: Q01DX005 (ip), vehicle: Klucel (hydroxypropylcellulose) (HPC)) read?
Answer: 87 % of control

Question: And the T/C (dose: 120.0 mg/kg/injection, schedule: Q01DX005 (ip), vehicle: Klucel (hydroxypropylcellulose) (HPC))?
Answer: 93 % of control

Question: What about the T/C (dose: 240.0 mg/kg/injection, schedule: Q01DX005 (ip), vehicle: Klucel (hydroxypropylcellulose) (HPC)) of the same compound?
Answer: 87 % of control

Question: Which T/C [4] does the source give for Cc1cc(=O)oc2cc(OC(=O)Nc3ccc(Cl)cc3C(F)(F)F)ccc12 here?
Answer: 90 % of control

Question: And the T/C [5]?
Answer: 95 % of control

Question: With OCC(O)C(O)C(O)/C=N\Nc1ccccc1 (stereo not drawn) as the compound, how does the T/C [3] read?
Answer: 100 % of control

Question: What about the T/C [6] of the same compound?
Answer: 114 % of control

Question: How did the T/C [4] turn out when N#CC1(NC(=O)C(Cl)Cl)c2ccccc2-c2ccccc21 was run?
Answer: 100 % of control

Question: And the T/C [5]?
Answer: 93 % of control

Question: Which results are given for Nc1c(Cl)c(Cl)c(Br)c(Cl)c1Cl?
Answer: T/C [2]: 92 % of control; T/C (dose: 100.0 mg/kg/injection, schedule: Q01DX009 (ip), vehicle: saline with Tween-80): 90 % of control

Question: Which results are given for CN1CCC(CN2c3ccccc3Sc3ccccc32)C1 (stereo not drawn)?
Answer: T/C (dose: 12.5 mg/kg/injection, schedule: Q01DX009 (ip), vehicle: saline with Tween-80): 104 % of control; T/C [1]: 107 % of control; T/C [2]: 116 % of control

Question: What does the source list for CCOc1ccccc1C(=O)Nc1cc(C)nn1-c1ccccc1?
Answer: T/C (dose: 100.0 mg/kg/injection, schedule: Q01DX001 (ip), vehicle: saline with Tween-80): 102 % of control; T/C (dose: 200.0 mg/kg/injection, schedule: Q01DX001 (ip), vehicle: saline with Tween-80): 100 % of control; T/C (dose: 400.0 mg/kg/injection, schedule: Q01DX001 (ip), vehicle: saline with Tween-80): 106 % of control

Question: Which results are given for O=C(CN1CCCCC1)Nc1nc(-c2ccc(Cl)cc2)cs1?
Answer: T/C (dose: 6.25 mg/kg/injection, schedule: Q01DX005 (ip), vehicle: saline with Tween-80): 100 % of control; T/C (dose: 12.5 mg/kg/injection, schedule: Q01DX005 (ip), vehicle: saline with Tween-80): 94 % of control; T/C (dose: 25.0 mg/kg/injection, schedule: Q01DX005 (ip), vehicle: saline with Tween-80): 89 % of control

Question: How did the T/C (dose: 25.0 mg/kg/injection, schedule: Q04DX003 (ip), vehicle: Klucel (hydroxypropylcellulose) (HPC)) turn out when CCC(C)(CC(=O)O)c1ccccc1 (stereo not drawn) was run?
Answer: 108 % of control

Question: And the T/C (dose: 50.0 mg/kg/injection, schedule: Q04DX003 (ip), vehicle: Klucel (hydroxypropylcellulose) (HPC))?
Answer: 111 % of control

Question: And the T/C (dose: 100.0 mg/kg/injection, schedule: Q04DX003 (ip), vehicle: Klucel (hydroxypropylcellulose) (HPC))?
Answer: 112 % of control

Question: And the T/C (dose: 200.0 mg/kg/injection, schedule: Q04DX003 (ip), vehicle: Klucel (hydroxypropylcellulose) (HPC))?
Answer: 115 % of control

Question: Which T/C (dose: 0.04 mg/kg/injection, schedule: Q01DX009 (ip), vehicle: saline) does the source give for CCCCCCCCCCCCCCCC[N+]1(CC)CCCCCC1 here?
Answer: 110 % of control

Question: And the T/C (dose: 0.09 mg/kg/injection, schedule: Q01DX009 (ip), vehicle: saline)?
Answer: 103 % of control and 88 % of control

Question: And the T/C (dose: 0.19 mg/kg/injection, schedule: Q01DX009 (ip), vehicle: saline)?
Answer: 89 % of control

Question: How did the T/C (dose: 50.0 mg/kg/injection, schedule: Q01DX009 (ip), vehicle: saline sonified) turn out when O=C(C[n+]1cc2ccccc2cc1/C=N/O)c1ccccc1 was run?
Answer: 100 % of control

Question: What about the T/C (dose: 100.0 mg/kg/injection, schedule: Q01DX009 (ip), vehicle: saline sonified) of the same compound?
Answer: 100 % of control

Question: And the T/C (dose: 200.0 mg/kg/injection, schedule: Q01DX009 (ip), vehicle: saline sonified)?
Answer: 86 % of control

Question: Which results are given for O=C(OCC#CCOC(=O)C(Cl)Cl)C(Cl)Cl?
Answer: T/C (dose: 100.0 mg/kg/injection, schedule: Q04DX003 (ip), vehicle: saline with Tween-80): 108 % of control; T/C (dose: 200.0 mg/kg/injection, schedule: Q04DX003 (ip), vehicle: saline with Tween-80): 104 % of control; T/C (dose: 400.0 mg/kg/injection, schedule: Q04DX003 (ip), vehicle: saline with Tween-80): 100 % of control

Question: How did the T/C [3] turn out when Nc1ncncc1-c1ccc(F)cc1 was run?
Answer: 103 % of control

Question: And the T/C [6]?
Answer: 101 % of control

Question: Which T/C [4] does the source give for COC(SC)(C(=O)O)c1cc(-c2c(Cl)cccc2Cl)no1 (stereo not drawn) here?
Answer: 96 % of control

Question: What about the T/C [5] of the same compound?
Answer: 93 % of control

Question: What about the T/C (dose: 240.0 mg/kg/injection, schedule: Q01DX005 (ip), vehicle: saline with Tween-80) of the same compound?
Answer: 112 % of control

Question: Which T/C [7] does the source give for CCOC(=O)CC1=CS/C(=C(\C#N)C(=O)OCC)N1c1ccccc1 here?
Answer: 100 % of control

Question: And the T/C [8]?
Answer: 100 % of control

Question: What about the T/C (dose: 200.0 mg/kg/injection, schedule: Q01DX005 (ip), vehicle: saline with Tween-80) of the same compound?
Answer: 100 % of control

Question: CC(C)N=Cc1ccccc1O.CC(C)N=Cc1ccccc1O.[Co] was tested. Which T/C (dose: 12.5 mg/kg/injection, schedule: Q04DX003 (ip), vehicle: saline sonified) did it give?
Answer: 110 % of control

Question: What about the T/C (dose: 25.0 mg/kg/injection, schedule: Q04DX003 (ip), vehicle: saline sonified) of the same compound?
Answer: 100 % of control

Question: And the T/C (dose: 50.0 mg/kg/injection, schedule: Q04DX003 (ip), vehicle: saline sonified)?
Answer: 105 % of control

Question: Which results are given for OC(COc1c2ccccc2nc2ccccc12)CN1CCN(c2ccccc2)CC1 (stereo not drawn)?
Answer: T/C [7]: 94 % of control; T/C [8]: 90 % of control

Question: Which results are given for CC(=O)c1c(O)c2c(=O)n(C)c(C)cc2n(C)c1=O?
Answer: T/C (dose: 50.0 mg/kg/injection, schedule: Q01DX005 (ip), vehicle: Klucel (hydroxypropylcellulose) (HPC)): 100 % of control; T/C (dose: 100.0 mg/kg/injection, schedule: Q01DX005 (ip), vehicle: Klucel (hydroxypropylcellulose) (HPC)): 100 % of control; T/C (dose: 200.0 mg/kg/injection, schedule: Q01DX005 (ip), vehicle: Klucel (hydroxypropylcellulose) (HPC)): 98 % of control

Question: What does the source list for Cc1nn2c(-c3cnns3)nnc2s1?
Answer: T/C (dose: 50.0 mg/kg/injection, schedule: Q01DX001 (ip), vehicle: Klucel (hydroxypropylcellulose) (HPC)): 107 % of control; T/C (dose: 100.0 mg/kg/injection, schedule: Q01DX001 (ip), vehicle: Klucel (hydroxypropylcellulose) (HPC)): 107 % of control; T/C (dose: 200.0 mg/kg/injection, schedule: Q01DX001 (ip), vehicle: Klucel (hydroxypropylcellulose) (HPC)): 100 % of control

Question: With CC1=C(CO)C(=O)O[C@@H]([C@@H](C)[C@H]2CC[C@H]3[C@@H]4C[C@H]5O[C@]56[C@@H](O)C=CC(=O)[C@]6(C)[C@H]4CC[C@]23C)C1 as the compound, how does the T/C (dose: 2.5 mg/kg/injection, schedule: Q04DX003 (ip), vehicle: saline) read?
Answer: 102 % of control and 103 % of control

Question: What about the T/C (dose: 5.0 mg/kg/injection, schedule: Q04DX003 (ip), vehicle: saline) of the same compound?
Answer: 100 % of control and 103 % of control

Question: What about the T/C (dose: 10.0 mg/kg/injection, schedule: Q04DX003 (ip), vehicle: saline) of the same compound?
Answer: 109 % of control and 110 % of control

Question: And the T/C (dose: 20.0 mg/kg/injection, schedule: Q04DX003 (ip), vehicle: saline)?
Answer: 102 % of control and 116 % of control

Question: What about the T/C (dose: 40.0 mg/kg/injection, schedule: Q04DX003 (ip), vehicle: saline) of the same compound?
Answer: 109 % of control and 123 % of control
